Test results published in publication PMC12652692, “Synthesis and In Vitro Anticancer Evaluation of Novel Phosphonium Derivatives of Chrysin” (International Journal of Molecular Sciences, 2025).

Assays:
Experiment in all cases: NCI60 one-dose screen
Type in all cases: cell-based
[1] = system: BT-549; settings: Homo sapiens; BT-549, 10 μM; read-out: Growth percent
Procedure, shortened: (§1)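 Each cell line received a single 10 µM dose. Cells were fixed with cold TCA after 48 h, stained with 0.4% SRB, and read at 515 nm, with percent growth normalised to the control and time-zero plates.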

[2] = system: CCRF-CEM; settings: Homo sapiens, read-out: Growth percent
Procedure, shortened: as §1

[3] = system: COLO 205; settings: Homo sapiens; COLO 205, 10 μM; read-out: Growth percent
Procedure, shortened: as §1

[4] = system: HCC-2998; settings: Homo sapiens; HCC-2998, 10 μM; read-out: Growth percent
Procedure, shortened: as §1

[5] = system: HCT-116; settings: Homo sapiens; HCT-116, 10 μM; read-out: Growth percent
Procedure, shortened: as §1

[6] = system: HL-60(TB); settings: Homo sapiens, read-out: Growth percent
Procedure, shortened: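 Percent growth is reported relative to untreated control and to the cell number at drug addition, so values below 0 indicate cell killing. It was measured by SRB protein staining after 48 h incubation with 10 µM compound.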

[7] = system: K-562; settings: Homo sapiens, K562; K-562, 10 μM; read-out: Growth percent
Procedure, shortened: as §1

[8] = system: KM12; settings: Homo sapiens; KM12, 10 μM; read-out: Growth percent
Procedure, shortened: as §1

[9] = system: MALME-3M; settings: Homo sapiens, read-out: Growth percent
Procedure, shortened: as §1

[10] = system: MCF7; settings: Homo sapiens; MCF7, 10 μM; read-out: Growth percent
Procedure, shortened: as §1

[11] = system: MDA-MB-468; settings: Homo sapiens; MDA-MB-468, 10 μM; read-out: Growth percent
Procedure, shortened: as §1

[12] = system: OVCAR-4; settings: Homo sapiens; OVCAR-4, 10 μM; read-out: Growth percent
Procedure, shortened: as §1

[13] = system: RXF 393; settings: Homo sapiens; RXF 393, 10 μM; read-out: Growth percent
Procedure, shortened: as §1

[14] = system: SF-539; settings: Homo sapiens; SF-539, 10 μM; read-out: Growth percent
Procedure, shortened: as §1

[15] = system: SK-MEL-28; settings: Homo sapiens; SK-MEL-28, 10 μM; read-out: Growth percent
Procedure, shortened: as §1

[16] = system: SN12C; settings: Homo sapiens, read-out: Growth percent
Procedure, shortened: as §1

[17] = system: SNB-75; settings: Homo sapiens; SNB-75, 10 μM; read-out: Growth percent
Procedure, shortened: as §1

[18] = system: SW-620; settings: Homo sapiens; SW-620, 10 μM; read-out: Growth percent
Procedure, shortened: as §1

[19] = system: U251; settings: Homo sapiens, U-251; U251, 10 μM; read-out: Growth percent
Procedure, shortened: as §1

[20] = system: UACC-257; settings: Homo sapiens; UACC-257, 10 μM; read-out: Growth percent
Procedure, shortened: as §1

[21] = system: UO-31; settings: Homo sapiens; UO-31, 10 μM; read-out: Growth percent
Procedure, shortened: as §1

Row | Compound | activity at 10 µM [1] [%] | activity at 10 µM [2] [%] | activity at 10 µM [3] [%] | activity at 10 µM [4] [%] | activity at 10 µM [5] [%] | activity at 10 µM [6] [%] | activity at 10 µM [7] [%] | activity at 10 µM [8] [%] | activity at 10 µM [9] [%] | activity at 10 µM [10] [%] | activity at 10 µM [11] [%] | activity at 10 µM [12] [%] | activity at 10 µM [13] [%] | activity at 10 µM [14] [%] | activity at 10 µM [15] [%] | activity at 10 µM [16] [%] | activity at 10 µM [17] [%] | activity at 10 µM [18] [%] | activity at 10 µM [19] [%] | activity at 10 µM [20] [%] | also measured
1 | O=c1cc(-c2ccccc2)oc2cc(OCCCC[P+](C3CCCCC3)(C3CCCCC3)C3CCCCC3)cc(O)c12 [3e] | -89.9 | -66.7 | -70.2 | -84.7 | -62 | -20.6 | 3.17 | -92 | -76.9 | -77 | -83.5 | -64.5 | -80 | 87.1 | -41.4 | -57 | -80.5 | -76.4 | -95.5 | -92.2 | activity at 10 µM [21]: -92.5%
2 | COc1c(C)cc([P+](CCCCOc2cc(O)c3c(=O)cc(-c4ccccc4)oc3c2)(c2cc(C)c(OC)c(C)c2)c2cc(C)c(OC)c(C)c2)cc1C [3f] | -53.4 | -32.6 | -62.2 | -73.5 | -47.6 | -27.7 | 6.85 | -82.3 | -42.5 | -58 | -76 | -65.5 | -66.9 | -89.2 | -85.7 | -77.4 | -71 | -62.4 | -76.6 | -79.7 | activity at 10 µM [21]: -59.6%
3 | O=c1cc(-c2ccccc2)oc2cc(OCCCC[P+](c3ccccc3)(c3ccccc3)c3ccccn3)cc(O)c12 [3h] | -69.7 | -20.7 | -75.9 | -88.5 | -61.6 | 0.68 | -51.3 | -94.6 | -93.4 | -62.6 | -90.7 | -51.2 | -80.5 | -96.5 | -94.7 | -91.4 | -47.3 | -88.3 | -96 | -89.8 | activity at 10 µM [21]: -94%
4 | O=c1cc(-c2ccccc2)oc2cc(O)cc(O)c12 [compound 2, 5,7-dihydroxyflavone, reference compound] | 91 | 102 | 105 | 103 | 82.7 | 116 | 96.8 | 92.9 | 102 | 103 | 91.1 | 112 | 91.2 | 92.2 | 102 | 85.8 | 89 | 102 | 80.7 | 119 | activity at 10 µM [21]: 89.4%
